Source: the CheMixHub ionic liquid set
± gives the uncertainty stated by the source.

Assay: xn = mol fraction of the nth substance listed

c1ccccc1 + CCCC[n+]1ccn(C)c1.O=S(=O)([O-])C(F)(F)F
100 kPa, x1 = 1
Conditions | viscosity [mPa·s]
308.15 K | 0.527 ± 0.088
318.15 K | 0.466 ± 0.085

c1ccccc1 + CCCCCCCC[n+]1ccc2ccccc2c1.O=S(=O)([N-]S(=O)(=O)C(F)(F)F)C(F)(F)F
101 kPa, x1 = 1
Conditions | viscosity [mPa·s]
308.15 K | 0.53 ± 0.01
328.15 K | 0.42 ± 0.01

CC[n+]1ccn(C)c1.F[B-](F)(F)F + CC(=O)N(C)C
Conditions | electrical conductivity [S/m] | viscosity [mPa·s]
283.15 K, 100 kPa, x1 = 0.0006798 | 0.03925 ± 2e-05 | –
288.15 K, 100 kPa, x1 = 0.001378 | 0.07985 ± 3.9e-05 | –
298.15 K, 100 kPa, x1 = 0.0004953 | 0.03615 ± 1.7e-05 | –
303.15 K, 101 kPa, x2 = 0 | – | 28 ± 0.45
303.15 K, 101 kPa, x2 = 0.1998 | – | 18.05 ± 0.27
303.15 K, 101 kPa, x2 = 0.6 | – | 5.678 ± 0.077
303.15 K, 101 kPa, x2 = 0.6996 | – | 3.833 ± 0.051
303.15 K, 101 kPa, x2 = 0.8001 | – | 2.499 ± 0.033
313.15 K, 100 kPa, x1 = 0.0006798 | 0.05765 ± 2.6e-05 | –
313.15 K, 101 kPa, x2 = 0.5005 | – | 6.172 ± 0.086
313.15 K, 101 kPa, x2 = 0.6 | – | 4.493 ± 0.061
323.15 K, 101 kPa, x2 = 0 | – | 15.35 ± 0.25
323.15 K, 101 kPa, x2 = 0.2995 | – | 8.36 ± 0.12
333.15 K, 101 kPa, x2 = 0.2995 | – | 6.91 ± 0.1
333.15 K, 101 kPa, x2 = 0.3989 | – | 5.375 ± 0.077

CO + CCCC[n+]1ccn(C)c1.O=S(=O)([N-]S(=O)(=O)C(F)(F)F)C(F)(F)F
Conditions | viscosity [mPa·s]
298 K, 100 kPa, x2 = 0 | 0.534 ± 0.006

CC[n+]1ccn(C)c1.O=S(=O)([N-]S(=O)(=O)C(F)(F)F)C(F)(F)F + O=S(=O)([O-])C(F)(F)F.[Li+]
101 kPa, x1 = 1
Conditions | electrical conductivity [S/m]
288.15 K | 0.611 ± 0.061
298.15 K | 0.883 ± 0.089
333.15 K | 2.18 ± 0.22

CC[n+]1ccn(C)c1.O=S(=O)([N-]S(=O)(=O)C(F)(F)F)C(F)(F)F + O
Conditions | electrical conductivity [S/m] | viscosity [mPa·s]
297.55 K, 101 kPa, x1 = 0.889 | – | 26 ± 0.7
297.85 K, 101 kPa, x2 = 0.205 | 1.22 ± 0.03 | –
298 K, 101 kPa, x2 = 0.02 | – | 32.3 ± 3.3
298 K, 101 kPa, x2 = 0.0629 | – | 30.8 ± 3.1
298 K, 101 kPa, x2 = 0.199 | – | 25.4 ± 2.6
298 K, 101 kPa, x2 = 0.227 | – | 25.2 ± 2.6
298.15 K, 101 kPa, x2 = 0.205 | 1.3 ± 0.03 | –
299.15 K, 101 kPa, x2 = 0.205 | 1.32 ± 0.03 | –
300.35 K, 101 kPa, x2 = 0.205 | 1.38 ± 0.03 | –
302.15 K, 101 kPa, x2 = 0.205 | 1.45 ± 0.03 | –
302.85 K, 101 kPa, x2 = 0.205 | 1.51 ± 0.03 | –
303.15 K, 100 kPa, x2 = 0.298 | – | 16.23 ± 0.14
303.95 K, 101 kPa, x2 = 0.205 | 1.61 ± 0.03 | –
304.95 K, 101 kPa, x2 = 0.205 | 1.66 ± 0.03 | –
313.15 K, 100 kPa, x2 = 0.298 | – | 12.29 ± 0.11
333.15 K, 100 kPa, x2 = 0.298 | – | 7.749 ± 0.067

CC[n+]1ccn(C)c1.O=S(=O)([N-]S(=O)(=O)C(F)(F)F)C(F)(F)F + CCCCCCCCCCCC[n+]1ccn(C)c1.O=S(=O)([N-]S(=O)(=O)C(F)(F)F)C(F)(F)F
100 kPa, x2 = 0
Conditions | viscosity [mPa·s]
293 K | 36 ± 3
313 K | 18 ± 1.1

CO + C[N+](C)(C)CCC[N+]1(C)CCCCC1.N#C[N-]C#N.N#C[N-]C#N
100 kPa, x2 = 0
Conditions | viscosity [mPa·s]
293.15 K | 0.584 ± 0.059
323.15 K | 0.395 ± 0.04

CC[n+]1ccn(C)c1.O=S(=O)([N-]S(=O)(=O)C(F)(F)F)C(F)(F)F + CC1COC(=O)O1
101.3 kPa
Conditions | viscosity [mPa·s]
288.15 K, x1 = 0.7977 | 34.2 ± 0.71
293.15 K, x1 = 0.3007 | 8.42 ± 0.18
293.15 K, x1 = 1 | 39.06 ± 0.82
298.15 K, x1 = 0.2127 | 5.58 ± 0.12
298.15 K, x1 = 0.7004 | 20.1 ± 0.42
303.15 K, x1 = 0.1 | 3.358 ± 0.071
303.15 K, x1 = 0.4227 | 8.98 ± 0.19
303.15 K, x1 = 0.7601 | 18.97 ± 0.4
308.15 K, x1 = 0.4227 | 7.89 ± 0.16
308.15 K, x1 = 0.6015 | 12.59 ± 0.26
308.15 K, x1 = 0.7601 | 16.83 ± 0.35
308.15 K, x1 = 1 | 23.19 ± 0.48
313.15 K, x1 = 0.7601 | 14.7 ± 0.31
313.15 K, x1 = 0.8098 | 16.11 ± 0.34
313.15 K, x1 = 1 | 19.94 ± 0.42
318.15 K, x1 = 0.3007 | 4.614 ± 0.097
318.15 K, x1 = 0.6015 | 9.46 ± 0.2
318.15 K, x1 = 0.7004 | 11.6 ± 0.24
318.15 K, x1 = 0.9533 | 16.99 ± 0.35
323.15 K, x1 = 0.6015 | 8.33 ± 0.17
328.15 K, x1 = 0.2127 | 3.014 ± 0.063
328.15 K, x1 = 0.4227 | 5.07 ± 0.11
328.15 K, x1 = 0.5146 | 6.11 ± 0.13
328.15 K, x1 = 0.7601 | 9.85 ± 0.21
328.15 K, x1 = 0.7977 | 10.52 ± 0.22
333.15 K, x1 = 0.1 | 1.979 ± 0.042
333.15 K, x1 = 0.3007 | 3.477 ± 0.073
333.15 K, x1 = 0.658 | 7.31 ± 0.15
333.15 K, x1 = 0.7004 | 7.92 ± 0.17
338.15 K, x1 = 0.1 | 1.838 ± 0.039
343.15 K, x1 = 0.5146 | 4.595 ± 0.096
343.15 K, x1 = 0.7601 | 6.96 ± 0.15
343.15 K, x1 = 0.7977 | 7.41 ± 0.15
343.15 K, x1 = 0.8098 | 7.59 ± 0.16
348.15 K, x1 = 0.1 | 1.599 ± 0.034
348.15 K, x1 = 0.2127 | 2.203 ± 0.047
348.15 K, x1 = 0.658 | 5.39 ± 0.11

Cc1cnc[nH]1 + CC[n+]1ccn(C)c1.[Cl-]
101.33 kPa, x2 = 0.667
Conditions | viscosity [mPa·s]
303.15 K | 326 ± 12
313.15 K | 151.3 ± 4.8
323.15 K | 84.8 ± 2.2
333.15 K | 51.8 ± 1.2
343.15 K | 32.73 ± 0.76
353.15 K | 22.56 ± 0.52

CC[n+]1ccn(C)c1.O=S(=O)([N-]S(=O)(=O)C(F)(F)F)C(F)(F)F + O=C1OCCO1
100 kPa, x2 = 0
Conditions | viscosity [mPa·s]
383.15 K | 4.2 ± 0.4
393.15 K | 3.7 ± 0.4

CC[n+]1ccn(C)c1.COP(=O)([O-])OC + O
101 kPa
Conditions | viscosity [mPa·s]
293.15 K, x2 = 0.198 | 292 ± 18
298.15 K, x2 = 0.198 | 212 ± 11
303.15 K, x2 = 0.198 | 157.4 ± 6.6
318.15 K, x2 = 0.198 | 73.7 ± 1.2
318.15 K, x2 = 0.399 | 52.73 ± 0.49
318.15 K, x2 = 0.799 | 11.57 ± 0.13
328.15 K, x2 = 0.399 | 35.56 ± 0.41
333.15 K, x2 = 0.198 | 40.33 ± 0.5

CCCC[n+]1cccc(C)c1.N#C[N-]C#N + O
298.15 K, 101 kPa
Conditions | electrical conductivity [S/m]
x1 = 0.0001676 | 0.072 ± 0.02
x1 = 0.0003333 | 0.132 ± 0.02
x1 = 0.0004971 | 0.18 ± 0.02
x1 = 0.0007203 | 0.265 ± 0.02
x1 = 0.0009901 | 0.347 ± 0.02
x1 = 0.001245 | 0.42 ± 0.02
x1 = 0.001513 | 0.502 ± 0.02
x1 = 0.001757 | 0.558 ± 0.02
x1 = 0.002014 | 0.629 ± 0.02
x1 = 0.002115 | 0.655 ± 0.02
x1 = 0.002344 | 0.698 ± 0.02
x1 = 0.002438 | 0.725 ± 0.02
x1 = 0.002706 | 0.785 ± 0.02
x1 = 0.002941 | 0.824 ± 0.02
x1 = 0.00295 | 0.83 ± 0.02
x1 = 0.00329 | 0.889 ± 0.02
x1 = 0.003543 | 0.944 ± 0.02

CO + CC[n+]1ccn(C)c1C.F[B-](F)(F)F
Conditions | viscosity [mPa·s]
308.15 K, 101.3 kPa, x2 = 0 | 0.467 ± 0.044

CC[S+](CC)CCOCCOCCOCCOCC[S+](CC)CC.O=S(=O)([N-]S(=O)(=O)C(F)(F)F)C(F)(F)F.O=S(=O)([N-]S(=O)(=O)C(F)(F)F)C(F)(F)F + CC[n+]1ccn(C)c1.N#C[N-]C#N + O=S(=O)([N-]S(=O)(=O)C(F)(F)F)C(F)(F)F.[Li+]
100 kPa, x1 = 0.1416, x2 = 0.7549
Conditions | electrical conductivity [S/m]
298 K | 0.679 ± 0.027
303 K | 0.979 ± 0.039
313 K | 1.29 ± 0.052
323 K | 1.7 ± 0.068
333 K | 2.05 ± 0.082
343 K | 2.41 ± 0.096

CO + CC[n+]1ccn(C)c1.N#C[S-]
100 kPa, x2 = 0
Conditions | viscosity [mPa·s]
298.15 K | 0.54
318.15 K | 0.43

CC(O)C(=O)[O-].C[N+](C)(C)CCO + CCCO + O
100 kPa, x1 = 0.00408, x2 = 0.5431
Conditions | viscosity [mPa·s]
288.15 K | 3.551 ± 0.039
298.15 K | 2.585 ± 0.028
308.15 K | 1.943 ± 0.021

C[N+]1(CCOCC[N+]2(C)CCCC2)CCCC1.O=S(=O)([N-]S(=O)(=O)C(F)(F)F)C(F)(F)F.O=S(=O)([N-]S(=O)(=O)C(F)(F)F)C(F)(F)F + CC[n+]1ccn(C)c1.N#C[N-]C#N + O=S(=O)([N-]S(=O)(=O)C(F)(F)F)C(F)(F)F.[Li+]
100 kPa, x1 = 0.1626, x2 = 0.7364
Conditions | electrical conductivity [S/m]
298 K | 0.806 ± 0.032
303 K | 1.08 ± 0.043
313 K | 1.43 ± 0.057
323 K | 1.82 ± 0.073
333 K | 2.2 ± 0.088
343 K | 2.65 ± 0.11

CC[n+]1ccn(C)c1.O=S(=O)([N-]S(=O)(=O)C(F)(F)F)C(F)(F)F + O=S(=O)([N-]S(=O)(=O)C(F)(F)F)C(F)(F)F.[Li+]
101 kPa, x1 = 1
Conditions | electrical conductivity [S/m] | viscosity [mPa·s]
288.15 K | 0.611 ± 0.061 | –
298.15 K | 0.883 ± 0.089 | –
313.15 K | – | 19.26 ± 0.79
333.15 K | 2.18 ± 0.22 | –
343.15 K | – | 9.46 ± 0.39

C[N+](CCO)(CCO)CCOCCO.[Cl-] + NC(N)=O
100 kPa, x1 = 0.5
Conditions | viscosity [mPa·s]
328.15 K | 560 ± 32
343.15 K | 221 ± 8
348.15 K | 169 ± 6
353.15 K | 131 ± 4

CCCCCCCC[N+](CCCCCCCC)(CCCCCCCC)CCCCCCCC.[Br-] + CCCCCCC(=O)O
Conditions | electrical conductivity [S/m]
298.1 K, 100 kPa, x1 = 0.333 | 4.5e-06 ± 5e-07
